According to publication PMC8828969, “Arylamine N-Acetyltransferase 1 Activity is Regulated by the Protein Acetylation Status” (Frontiers in Pharmacology, 2022):
Where two headings read alike, the source gives them in different places.

How the values were obtained:
KDAC proteins = experiment: KDAC (Sirtuin / HDAC) activity, both breast cancer cell lines (discussion summary); assay type: cell-based, human; details: MDA-MB-231 and ZR-75-1 cell lines
NAT1 [1] = experiment: NAT1 catalytic activity (PABA N-acetylation, HPLC) in lysate of treated ZR-75-1 cells; assay type: cell-based, human; details: for Ki: ZR-75-1 cells treated 48 h, read-out: Ki, decrease of NAT1 catalytic activity (PABA N-acetylation); for lowest concentration that significantly decreased NAT1 catalytic activity / lowest concentration that significantly upregulated NAT1 catalytic activity: ZR-75-1 cells, 48 h
Description: (§1) In vitro NAT1 enzymatic activity was quantified towards p-aminobenzoic acid (PABA). N-acetyl-PABA was quantified by High Performance Liquid Chromatography (HPLC) as previously described ([Hein et al., 2006]; [Stepp et al., 2018]). Briefly, cells were scaped from the plate and washed in ice-cold Phosphate Buffered Saline (PBS) and lysed in 20 mM sodium phosphate pH 7.4, 1 mM ethylenediaminetetraacetic acid (EDTA), 0.2% triton X-100, 1 mM dithiothreitol (DTT), 100 µM phenylmethanesulfonyl fluoride (PMSF), 1 μg/ml aprotinin, and 2 µM pepstatin A (MilliporeSigma, St. Louis, MO, United States). Cell lysate was centrifuged at 15,000 × g for 10 min, supernatant was recovered, and protein concentration was quantified as mentioned before. NAT1 enzymatic assay reactions containing 50 µL of suitable cell lysate, 300 µM PABA, and AcCoA (1 mM), were incubated at 37°C for 10 min. Reactions were terminated by the addition of 10 µL of 1 M acetic acid, then proteins were precipitated by centrifugation (15,000 × g for 20 min in the cold room) and supernatant was transferred to HPLC vials and injected onto a LiChrospher 100 RP-18 (125 mm × 4 mm; 5 µm) reverse phase column. Reactants and products were eluted with an Agilent 1260 Infinity II system (Agilent Technologies, Santa Clara, CA, United States). Separation of N-acetyl-PABA was achieved using a gradient of 96:4 of 20 mM sodium perchlorate pH 2.5: acetonitrile (ACN) to 88:12 20 mM sodium perchlorate:ACN over 3 min. Absorbance was recorded at 280 nm. Four independent measurements were performed in duplicate for each cell condition and cell line.
(§2) MDA-MB-231 or ZR-75-1 cells were plated in 12-well plates, at a density of 2 × 10^5 cells/well and allowed to attach to the plate overnight. […] After 48 h of drug treatment, plates were recovered and the cells were harvested for NAT1 activity assays, NAT1 mRNA and protein expression quantification as described above. For the siRNA transfection experiments, after 72 h of transfection, cells were harvested and processed as described above for the cells treated with inhibitors.

NAT1 [2] = experiment: NAT1 catalytic activity (PABA N-acetylation, HPLC) in lysate of treated MDA-MB-231 cells; assay type: cell-based, human; details: for Ki: MDA-MB-231 cells treated 48 h, read-out: Ki, decrease of NAT1 catalytic activity (PABA N-acetylation); for lowest concentration that significantly decreased NAT1 catalytic activity / lowest concentration that significantly increased NAT1 N-acetylation of PABA: MDA-MB-231 cells, 48 h
Description: as §1, §2

NAT1 [3] = experiment: NAT1 acetylation status (acetyl-lysine immunoprecipitation, AcNAT1/NAT1) in ZR-75-1 cells; assay type: cell-based, human; details: 48 h; for acetylation of NAT1 lysine residues, effect in words: vs vehicle; for NAT1 acetylation status, fold increase: vs vehicle control
Description: (§3) In order to assess the acetylation status of NAT1 protein, MDA-MB-231(6 × 10^5) and ZR-75-1 (3 × 10^6) cells were seeded onto 100 mm cell culture dishes and allowed to attach overnight. […] After 48-h drug treatment or 72-h siRNA transfection, cells were collected and lysed following the protocol of Signal-Seeker Acetyl-Lysine Detection kit (Citoskeleton, Denver, CO, United States). Briefly, after the incubation period concluded, cells were washed twice with PBS and lysed in ice-cold lysis buffer, 20 mM Tris-HCl (pH 7.4), 5 mM EDTA, 150 mM NaCl, 0.5% Triton X-100, 10 mM sodium butyrate and protease/phosphatase inhibitors cocktail. Cell lysates were incubated on ice for 20 min and isolated by centrifugation at 16,000 × g for 20 min. Supernatants were recovered and protein concentration was measured as described before. 150 µg of lysate was used for the IP; 1/10 of the sample was kept as input control. Thereafter, Acetyl Lysine Affinity Beads were added to the samples and incubated at 4°C for 2 h. Beads were washed three times with the provided wash buffer and the immunoprecipitated proteins were eluted and denatured with 2 × Laemmli buffer and boiled for 5 min. Protein samples were then separated by SDS-PAGE for 1 h at 150 V. Proteins were then transferred to PVDF membranes (Bio-Rad, Hercules, CA, United States) for 2 h at 100 V and blocked for 30 min in 1×fish gelatin (Biotium Inc., Fremont, CA, United States. After blocking, membranes were incubated with rabbit monoclonal anti-NAT1 antibody (ab109114, Abcam, Cambridge, United Kingdom) and mouse monoclonal anti-β-actin, as endogenous control (A2228, Sigma-Aldrich, St. Louis, MO, United States) overnight at 4°C with gentle agitation. The next day, the membranes were washed with TBST and incubated with secondary antibodies IRDye® 800 CW goat anti-rabbit and 680RD goat anti-mouse (LI-COR Biosciences, Lincoln, NE, United States) at room temperature for 1 hour. Finally, plates were washed with TBST and scanned using an Odyssey imaging system (LI-COR Biosciences, Lincoln, NE, United States). After detection of NAT1, the membranes were re-probed for acetyl-lysine-HRP detection using the antibody provided in the kit. Chemiluminescent detection was captured using a Fotodyne imaging system (Fotodyne Inc., Hartland, WI, United States). Densitometric analysis on the immunoblots was performed using ImageJ ([Schneider et al., 2012]) software or IMAGE STUDIO Lite software (LI-COR Biosciences, Lincoln, NE, United States), which enables quantitative analysis of blotting signals. NAT1 and acetyl-lysine levels were normalized to β-actin.

NAT1 [4] = experiment: NAT1 acetylation status (acetyl-lysine immunoprecipitation, AcNAT1/NAT1) in MDA-MB-231 cells; assay type: cell-based, human; details: 48 h, vs vehicle
Description: as §3

Sirtuin = Sirtuin activity in inhibitor-treated cells (Sirtuin Activity kit, lysate fluorescence); assay type: cell-based, human
Description: (§4) The next day, cells were treated with increasing concentrations, (0–100 µM) of the inhibitor for 48 h. Following incubation, the enzymatic activity of Sirtuin and HDAC proteins was quantified using the Sirtuin Activity kit (MilliporeSigma, St. Louis, MO, United States), according to manufacturer’s instructions. […] Supernatant was recovered ant kept on ice. Samples were normalized to the lowest protein concentration sample using the Bradford protein assay (Bio-Rad, Hercules, CA, United States). Then, 20 µL of diluted cell lysate were transferred into a 96 well plate, the activity reaction mix was prepared as recommended, and the reaction was incubated for 15 min at 37°C.

NAT1b transcript [5] = experiment: NAT1b mRNA quantification by qRT-PCR in MDA-MB-231 cells; assay type: cell-based, human; details: 48 h
Description: (§5) NAT1 mRNA levels were measured as described previously ([Millner et al., 2012]). Primers were designed to recognize only NAT1b expression. Briefly, total RNA was isolated cells lines using the RNeasy Mini kit (Qiagen, Hilden, GER) followed by removal of contaminating DNA by treatment with Turbo DNA-free (Ambion, Austin, TX, United States). cDNA was synthetized using the High-Capacity Reverse transcriptase kit (Life Technologies, Carlsbad, CA, United States) using 1 µg of total RNA in a 20 µL reaction following manufacturer’s instructions.
as §2

NAT1b transcript [6] = experiment: NAT1b mRNA quantification by qRT-PCR in ZR-75-1 cells; assay type: cell-based, human; details: 48 h
Description: as §5, §2

HDAC [7] = details: MDA-MB-231 cells, vs vehicle control; for lowest concentration that significantly decreased HDAC deacetylase activity: 48 h
Description: as §4

NAT1b transcript [8] = test system: NAT1b transcript; set-up: method as in Paterson et al., 2011; details: after treatment with TSA; ref Paterson et al., 2011; cited from earlier work
NAT1 [9] = test system: NAT1; set-up: method as in Paterson et al., 2011; details: after treatment with TSA; ref Paterson et al., 2011; cited from earlier work
HDAC [10] = details: ZR-75-1 cells, vs vehicle control
NAT1 [11] = test system: NAT1; set-up: method as in Butcher et al., 2020; details: ref Butcher et al., 2020; cited from earlier work
[12] = MDA-MB-231 cells, 48 h, vs vehicle control
[13] = MDA-MB-231 cells, 48 h treatment, vs vehicle control; read-out: IC50, Sirtuin deacetylase activity
[14] = ZR-75-1 cells, 48 h, vs vehicle control
[15] = ZR-75-1 cells, 48 h treatment, vs vehicle control; read-out: IC50, Sirtuin deacetylase activity
[16] = ZR-75-1 cells, 100 µM, vs vehicle
[17] = read-out: IC50, HDAC deacetylase activity, 48 h treatment

N#CC(=Cc1ccc(-c2cc(Cl)ccc2Cl)o1)C(=O)Nc1cccc2ncccc12 [AGK2, 2-cyano-3-[5-(2,5-dichlorophenyl)-2-furanyl]-N-5-quinolinyl-2-propenamide]
dose producing inhibition of KDAC enzymatic activity (KDAC proteins): 10 µM
Ki (NAT1 [1]): 0.55 µM
lowest concentration that significantly decreased NAT1 catalytic activity (NAT1 [1]): 1 µM
Ki (NAT1 [2]): 10.8 µM
lowest concentration that significantly decreased NAT1 catalytic activity (NAT1 [2]): 1 µM
acetylation of NAT1 lysine residues, effect in words (NAT1 [3]; 100 µM): increased
acetylated lysine residues of NAT1, effect in words (NAT1 [4]; 100 µM): increased
lowest concentration that significantly decreased Sirtuin activity (Sirtuin; [12]): 10 µM
IC50 (Sirtuin; [13]): 50.1 µM
lowest concentration that significantly inhibited Sirtuin deacetylase activity (Sirtuin; [14]): 10 µM
IC50 (Sirtuin; [15]): 27.6 µM
NAT1b transcript expression, effect in words (NAT1b transcript [5]; 100 µM, vs vehicle): significantly decreased

NC(=O)C1CCCc2c1[nH]c1ccc(Cl)cc21 (stereo not drawn) [EX527, 6-chloro-2,3,4,9-tetrahydro-1H-carbazole-1-carboxamide]
dose producing inhibition of KDAC enzymatic activity (KDAC proteins): 1 µM
NAT1b transcript expression, effect in words (NAT1b transcript [6]; [16]): significant decrease
Ki (NAT1 [1]): 0.39 µM
lowest concentration that significantly decreased NAT1 catalytic activity (NAT1 [1]): 0.01 µM
Ki (NAT1 [2]): 7.03 µM
lowest concentration that significantly decreased NAT1 catalytic activity (NAT1 [2]): 0.1 µM
acetylated lysine residues of NAT1, effect in words (NAT1 [4]; 100 µM): increased
lowest concentration that significantly decreased Sirtuin activity (Sirtuin; [12]): 1 µM
lowest concentration that significantly inhibited Sirtuin deacetylase activity (Sirtuin; [14]): 1 µM
IC50 (Sirtuin; read-out: IC50, Sirtuin deacetylase activity; MDA-MB-231 cells, 48 h treatment, vs vehicle control): 40.6 µM
IC50 (Sirtuin; read-out: IC50, Sirtuin deacetylase activity; ZR-75-1 cells, 48 h treatment, vs vehicle control): 11.8 µM
NAT1b transcript expression, effect in words (NAT1b transcript [5]; 100 µM, vs vehicle): significantly decreased

O=C(CCCCCCC(=O)Nc1ccccc1)NO [SAHA, Vorinostat]
lowest concentration that significantly upregulated NAT1 catalytic activity (NAT1 [1]): 10 µM
lowest concentration that significantly increased NAT1 N-acetylation of PABA (NAT1 [2]): 10 µM
lowest concentration that significantly decreased HDAC deacetylase activity (HDAC [7]): 10 µM
NAT1b transcript expression, effect in words (NAT1b transcript [5]; 10 and 100 µM, vs vehicle): more NAT1b transcript expression

CC(NC(=O)c1ccccc1N=Cc1c(O)ccc2ccccc12)c1ccccc1 (stereo not drawn) [Sirtinol, 2-[[(2-hydroxy-1-naphthalenyl)methylene]amino]-N-(1-phenylethyl)-benzamide]
dose producing inhibition of KDAC enzymatic activity (KDAC proteins): 10 µM
NAT1b transcript expression, effect in words (NAT1b transcript [6]; [16]): significant decrease
Ki (NAT1 [1]): 0.02 µM
lowest concentration that significantly decreased NAT1 catalytic activity (NAT1 [1]): 0.1 µM
Ki (NAT1 [2]): 21.9 µM
lowest concentration that significantly decreased NAT1 catalytic activity (NAT1 [2]): 1 µM
acetylation of NAT1 lysine residues, effect in words (NAT1 [3]; 10 µM): increased
acetylation of NAT1 lysine residues, effect in words (NAT1 [3]; 100 µM): increased
acetylated lysine residues of NAT1, effect in words (NAT1 [4]; 100 µM): increased
lowest concentration that significantly decreased Sirtuin activity (Sirtuin; [12]): 100 µM
IC50 (Sirtuin; [13]): 61.7 µM
lowest concentration that significantly inhibited Sirtuin deacetylase activity (Sirtuin; [14]): 10 µM
IC50 (Sirtuin; [15]): 35.8 µM
NAT1b transcript expression, effect in words (NAT1b transcript [5]; 100 µM, vs vehicle): significantly decreased

CC(/C=C/C(=O)NO)=C\[C@@H](C)C(=O)c1ccc(N(C)C)cc1 [TSA, Trichostatin A]
NAT1b transcription (NAT1b transcript [8]): upregulation
dose producing inhibition of KDAC enzymatic activity (KDAC proteins): 0.1 µM
NAT1b message expression, fold increase (NAT1b transcript [6]; ZR-75-1 cells, 1 µM): 6 fold
NAT1b transcript expression, fold increase (NAT1b transcript [6]; [16]): 9 fold
NAT1b transcript expression, effect in words (NAT1b transcript [6]; ZR-75-1 cells, 1, 10 and 100 µM, vs vehicle): more robust induction
lowest dose with significant upregulation of NAT1b message expression (NAT1b transcript [6]; ZR-75-1 cells): 1 µM
lowest concentration that significantly upregulated NAT1 catalytic activity (NAT1 [1]): 1 µM
lowest concentration that significantly increased NAT1 N-acetylation of PABA (NAT1 [2]): 1 µM
lowest concentration that significantly decreased HDAC deacetylase activity (HDAC [7]): 1 µM
IC50 (HDAC [7]; [17]): 13.5 µM
NAT1 catalytic activity (NAT1 [9]): increase
lowest concentration that significantly inhibited HDAC enzymatic activity (HDAC [10]; 48 h): 0.1 µM
IC50 (HDAC [10]; [17]): 6.4 µM
NAT1 acetylation status, fold increase (NAT1 [3]; 10 µM): 1.8 fold
NAT1 acetylation status, fold increase (NAT1 [3]; 100 µM): 2.4 fold
NAT1 acetylation, fold increase (NAT1 [4]; 10 µM): 1.6 fold
NAT1 acetylation, fold increase (NAT1 [4]; 100 µM): 2.1 fold
NAT1b transcription, fold increase (NAT1b transcript [5]; 0.01 µM): 3 fold
NAT1b transcript expression, fold increase (NAT1b transcript [5]; 10 µM, vs vehicle): over 10 fold
lowest dose with significant increase of NAT1b transcription (NAT1b transcript [5]): 0.01 µM

NC(=O)c1cccnc1 [nicotinamide]
acetylation of NAT1 (NAT1 [11]): enhanced
